Data as given in BindingDB's records for doi:10.1016/j.bmc.2006.10.040 (University of Camerino, 2007).
pEC50: −log10 of the molar value.

Experiments:
[1] = biological target: T1, Muscarinic acetylcholine receptor M5 (Homo sapiens, UniProt P08912); assay: Agonist activity at human muscarinic M5 receptor expressed in CHO cells
T1 sequence (P08912 whole entry): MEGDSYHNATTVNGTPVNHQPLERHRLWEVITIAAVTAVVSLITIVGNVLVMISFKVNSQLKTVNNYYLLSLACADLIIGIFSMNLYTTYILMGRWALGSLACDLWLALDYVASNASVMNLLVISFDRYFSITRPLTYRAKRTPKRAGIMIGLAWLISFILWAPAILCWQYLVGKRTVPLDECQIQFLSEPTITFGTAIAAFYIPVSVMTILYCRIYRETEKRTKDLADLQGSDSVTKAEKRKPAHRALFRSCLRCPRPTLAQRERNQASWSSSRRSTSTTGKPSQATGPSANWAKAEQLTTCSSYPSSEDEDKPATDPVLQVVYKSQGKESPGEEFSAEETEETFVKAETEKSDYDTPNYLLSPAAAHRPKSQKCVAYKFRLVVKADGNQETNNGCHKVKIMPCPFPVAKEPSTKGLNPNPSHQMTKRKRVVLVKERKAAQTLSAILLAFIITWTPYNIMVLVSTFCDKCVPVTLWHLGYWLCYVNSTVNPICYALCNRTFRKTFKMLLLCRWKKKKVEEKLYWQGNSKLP

[2] = biological target: T2, Muscarinic acetylcholine receptor M2 (Homo sapiens, UniProt P08172); assay: Agonist activity at human muscarinic M2 receptor expressed in CHO cells
T2 sequence (P08172 whole entry): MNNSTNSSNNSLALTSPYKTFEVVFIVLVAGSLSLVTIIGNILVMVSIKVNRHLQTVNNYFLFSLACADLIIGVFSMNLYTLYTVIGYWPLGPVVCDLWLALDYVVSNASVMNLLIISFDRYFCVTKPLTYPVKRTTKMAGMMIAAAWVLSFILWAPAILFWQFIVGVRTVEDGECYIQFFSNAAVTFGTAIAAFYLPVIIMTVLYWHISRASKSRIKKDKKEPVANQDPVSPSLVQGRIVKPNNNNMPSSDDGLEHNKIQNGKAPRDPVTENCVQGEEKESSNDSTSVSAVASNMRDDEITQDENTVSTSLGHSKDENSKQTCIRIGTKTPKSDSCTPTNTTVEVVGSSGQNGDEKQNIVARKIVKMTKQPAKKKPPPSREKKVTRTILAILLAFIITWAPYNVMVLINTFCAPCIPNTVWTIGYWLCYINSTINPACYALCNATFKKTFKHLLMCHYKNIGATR

SMILES	pEC50 [1]	pEC50 [2]
CC1COCC(C[N+](C)(C)C)O1 (centres undefined)	5.10	–
C[C@@H]1COC[C@H](C[N+](C)(C)C)O1	–	4.81
C[C@H]1COC[C@@H](C[N+](C)(C)C)O1	5.43	4.43
